Test results as given in the RepoRT retention time repository (doi:10.1007/s11306-011-0298-z).

Assay: RP, Waters ACQUITY UPLC HSS T3, 100 × 2.1 mm, 1.8 µm, 30 °C, 0.3 mL/min, estimated dead time 0.73 min; A: water + 0.1% formic acid, pH 3; B: methanol + 0.1% formic acid, pH 3; gradient (min/%B) 0/0 6/0 56/100 60/100
Conditions: stereoisomer not certain

Row | LC retention time | Compound
1 | 3.54 min | O=C(O)C=CC(=O)O [fumaric acid]
2 | 2.15 min | NCCCC(=O)O [gamma-aminobutyric acid]
3 | 3.27 min | NC(CCC(=O)NC(CS)C(=O)O)C(=O)O (configuration not stated) [gamma-glutamylcysteine]
4 | 46.5 min | CC(=O)CCC=C(C)CCC=C(C)C [geranyl acetone]
5 | 51.3 min | CC(C)=CCCC(C)=CCOC(=O)c1ccccc1 [geranyl benzoate]
6 | 36.7 min | CC(C)=CCCC(C)=CCOC1OC(CO)C(O)C(O)C1O (configuration not stated) [geranyl glucoside]
7 | 48.2 min | CCC(=O)OCC=C(C)CCC=C(C)C [geranyl propionate]
8 | 10.2 min | O=C(O)CCCC(=O)O [glutaric acid]
9 | 1.45 min | O=C(O)C(O)CO (configuration not stated) [glyceric acid]
10 | 2.3 min | O=C(O)CO [glycolic acid]
11 | 30.9 min | CCCCCC(=O)O [hexanoic acid]
12 | 18.1 min | CC(C)C(O)(CC(=O)O)C(=O)O (configuration not stated) [isopropyl malic acid]
13 | 33.7 min | CCC=CCC1C(=O)CCC1CC(=O)O (configuration not stated) [jasmonic acid]
14 | 2.51 min | CC(O)C(=O)O (configuration not stated) [lactic acid]
15 | 58.3 min | CC(C)=CCCC(C)C1CCC2(C)C3=C(CCC12C)C1(C)CCC(O)C(C)(C)C1CC3 (configuration not stated) [lanosterol]
16 | 50.8 min | C=CC(C)(CCC=C(C)C)OC(=O)c1ccccc1 (configuration not stated) [linalyl benzoate]
17 | 53.6 min | CCCCC/C=C\C/C=C\CCCCCCCC(=O)O [linoleic acid]
18 | 52.3 min | CCC=CCC=CCC=CCCCCCCCC(=O)O [linolenic acid]
19 | 26.2 min | O=C(O)C=Cc1cccc(O)c1 [m-coumaric acid]
20 | 2.11 min | O=C(O)CC(=O)O [malonic acid]
21 | 44.2 min | CCCCCCCC(=O)OC [methyl caprylate]
22 | 57.9 min | CCCCCCCC/C=C\CCCCCCCCCC(=O)OC [methyl cis-11-eicosenoate]
23 | 38.4 min | CCC=CCC1C(=O)CCC1CC(=O)OC (configuration not stated) [methyl jasmonate]
24 | 54.5 min | CCC=CCC=CCC=CCCCCCCCC(=O)OC [methyl linolenate]
25 | 54.4 min | CCCCCCCCCCCCCC(=O)OC [methyl myristate]
26 | 56.5 min | CCCCCCCCC=CCCCCCCCC(=O)OC [methyl oleate]
27 | 56.4 min | CCCCCCCCCCCCCCCC(=O)OC [methyl palmitate]
28 | 54.9 min | CCCCCCC=CCCCCCCCC(=O)OC [methyl palmitoleate]
29 | 33.8 min | COC(=O)CCS [methyl-3-mercaptoproprionate]
30 | 36.1 min | CCCCCCC(=O)O [n-heptanoic acid]

More lines, now with the values behind:

Row | Compound | LC retention time
31 | COc1cc2ccc(=O)oc2c(OC2OC(CO)C(O)C(O)C2O)c1O (configuration not stated) [fraxin] | 20.9 min
32 | O=C(O)c1ccco1 [furan-2-carboxylic acid] | 12.7 min
33 | O=Cc1ccco1 [furfural] | 12.2 min
34 | O=c1c(O)c(-c2ccccc2)oc2cc(O)cc(O)c12 [galangin] | 41.4 min
35 | O=C(O)c1cc(O)c(O)c(O)c1 [gallic acid] | 8.95 min
36 | COC(=O)C1=COC(O)C2C(CO)=CCC12 (configuration not stated) [genipin] | 24.2 min
37 | COc1ccc(-c2coc3cc(OC)cc(O)c3c2=O)cc1 [genistein-4,7-dimethylether] | 44.8 min
38 | O=c1c(-c2ccc(O)cc2)coc2cc(O)cc(O)c12 [genistein] | 35.1 min
39 | O=C(O)c1cc(O)ccc1O [gentisic acid] | 17 min
40 | CC(C)=CCCC(C)=CCOC(=O)Cc1ccccc1 [geranyl phenylacetate] | 54.6 min
41 | C=C1CC23CC1(O)CCC2C12C=CC(O)C(C)(C(=O)O1)C2C3C(=O)O (configuration not stated) [gibberellic acid] | 25.5 min
42 | O=C(O)C(O)C(O)C(O)C(O)CO (configuration not stated) [gluconic acid] | 1.4 min
43 | O=P(O)(O)OCC1OC(O)C(O)C(O)C1O (configuration not stated) [glucose-6-phosphate] | 1.22 min
44 | NC(CCC(=O)NC(CSSCC(NC(=O)CCC(N)C(=O)O)C(=O)NCC(=O)O)C(=O)NCC(=O)O)C(=O)O (configuration not stated) [glutathione disulfide] | 9.68 min
45 | NCC(=O)O [glycine] | 1.22 min
46 | O=CC(=O)O [glyoxylic acid] | 1.3 min
47 | COc1ccccc1O [guaiacol] | 22.5 min
48 | N=C(N)N [guanidine] | 1.3 min
49 | Nc1nc2nc[nH]c2c(=O)[nH]1 [guanine] | 3.21 min
50 | COc1ccc(C2CC(=O)c3c(O)cc(O)cc3O2)cc1O (configuration not stated) [hesperetin] | 34.8 min
51 | CCCCCCN [hexylamine] | 15.1 min

Row | Compound | LC retention time
52 | O=C(O)CNC(=O)c1ccccc1 [hippuric acid] | 17.3 min
53 | NCCc1cnc[nH]1 [histamine] | 1.1 min
54 | CC(CCC(=O)O)C1CCC2C3CC(O)C4CC(O)CCC4(C)C3CCC12C (configuration not stated) [hyodeoxycholic acid] | 46.4 min
55 | O=C(O)c1cc2ccccc2[nH]1 [indole-2-carboxylic acid] | 38.5 min
56 | O=C(O)c1c[nH]c2ccccc12 [indole-3-carboxylic acid] | 25.6 min
57 | O=C(O)CCc1c[nH]c2ccccc12 [indole-3-propionic acid] | 30.3 min
58 | O=C(O)C(=O)Cc1c[nH]c2ccccc12 [indole-3-pyruvic acid] | 30.3 min
59 | c1ccc2[nH]ccc2c1 [indole] | 28.1 min
60 | Oc1ccc(C2Oc3cc(O)cc4c3C2c2cc(O)cc(O)c2C(c2ccc(O)cc2)C4C2c3cc(O)cc4c3C(c3cc(O)cc(O)c3C2c2ccc(O)cc2)C(c2ccc(O)cc2)O4)cc1 (configuration not stated) [isohopeaphenol] | 25.9 min
61 | CC(C)CCN [isopentylamine] | 6.9 min
62 | COc1cc(-c2oc3cc(O)cc(O)c3c(=O)c2OC2OC(CO)C(O)C(O)C2O)ccc1O (configuration not stated) [isorhamnetin 3-glucoside] | 31.5 min
63 | COc1cc(-c2oc3cc(O)cc(O)c3c(=O)c2OC2OC(COC3OC(C)C(O)C(O)C3O)C(O)C(O)C2O)ccc1O (configuration not stated) [isorhamnetin 3-rutinoside] | 31.7 min
64 | COc1cc(-c2oc3cc(O)cc(O)c3c(=O)c2O)ccc1O [isorhamnetin] | 37.1 min
65 | COc1cc(C=Cc2cc(O)cc(OC3OC(CO)C(O)C(O)C3O)c2)ccc1O (configuration not stated) [isorhapontin] | 26.1 min
66 | O=C(O)C1OC(Oc2c(-c3ccc(O)cc3)oc3cc(O)cc(O)c3c2=O)C(O)C(O)C1O (configuration not stated) [kaempferol 3-O-glucuronide] | 30.7 min
67 | O=c1c(OC2OC(CO)C(O)C(O)C2O)c(-c2ccc(O)cc2)oc2cc(O)cc(O)c12 (configuration not stated) [kaempferol 3-glucoside] | 31.2 min
68 | CC1OC(OCC2OC(Oc3c(-c4ccc(O)cc4)oc4cc(O)cc(O)c4c3=O)C(O)C(O)C2O)C(O)C(O)C1O (configuration not stated) [kaempferol 3-rutinoside] | 31.4 min
69 | O=c1c(O)c(-c2ccc(O)cc2)oc2cc(O)cc(O)c12 [kaempferol] | 36.6 min
70 | COc1cc(-c2oc3cc(O)cc(O)c3c(=O)c2O)cc(O)c1O [laricitrin] | 34.7 min
71 | CCCCCCCCCCCCCCCCCCCCCCCC(=O)O [lignoceric acid] | 60.2 min
72 | C=C(C)C1CCC2(C)CCC3(C)C(CCC4C5(C)CCC(O)C(C)(C)C5CCC43C)C12 (configuration not stated) [lupeol] | 60 min

Row | Compound | LC retention time
73 | O=c1cc(-c2ccc(O)c(O)c2)oc2cc(OC3OC(CO)C(O)C(O)C3O)cc(O)c12 (configuration not stated) [luteolin 7-glucoside] | 28.1 min
74 | O=c1cc(-c2ccc(O)c(O)c2)oc2cc(O)cc(O)c12 [luteolin] | 34.7 min
75 | COc1cc(-c2oc3cc(=O)cc(OC4OC(CO)C(O)C(O)C4O)c-3cc2OC2OC(CO)C(O)C(O)C2O)cc(OC)c1O (configuration not stated) [malvidin-3,5-diglucoside] | 20.7 min
76 | COc1cc(-c2oc3cc(=O)cc(O)c-3cc2OC2OC(CO)C(O)C(O)C2O)cc(OC)c1O (configuration not stated) [malvidin-3-galactoside] | 24.2 min
77 | OCC(O)C(O)C(O)C(O)CO (configuration not stated) [mannitol] | 1.38 min
78 | OCC1OC(OCC2OC(O)C(O)C(O)C2O)C(O)C(O)C1O (configuration not stated) [melibiose] | 1.4 min
79 | CCCCCCCCCCCCCCCCCCCC(=O)OC [methyl arachidate] | 59.2 min
80 | CCCCCCCCCCCCCCCCCCCCCC(=O)OC [methyl behenate] | 61.2 min
81 | COC(=O)c1cc(O)c(O)c(O)c1 [methyl gallate] | 18.2 min
82 | CCCCCCCCCCCCCCCCC(=O)OC [methyl heptadecanoate] | 57.1 min
83 | CCCCCCCCCCCCCCCCCCC(=O)OC [methyl nonadecanoate] | 58.5 min
84 | CCCCCCCCCCCCCCCCCC(=O)OC [methyl stearate] | 57.8 min
85 | COC1OC(C(=O)O)C(O)C(O)C1O (configuration not stated) [methyl-glucuronide] | 2.4 min
86 | COc1cc(-c2oc3cc(=O)cc4oc(C)cc(c2OC2OC(CO)C(O)C(O)C2O)c43)cc(OC)c1O (configuration not stated) [methylpyrano malvidin 3-glucoside] | 28.6 min
87 | COC(=O)c1ccccc1O [methylsalicylate ester] | 34.5 min
88 | O=c1c(O)c(-c2ccc(O)cc2O)oc2cc(O)cc(O)c12 [morin] | 31.9 min
89 | C1COCCN1 [morpholine] | 1.4 min
90 | O=C(O)C(O)C(O)C(O)C(O)C(=O)O (configuration not stated) [mucic acid] | 1.3 min
91 | OC1C(O)C(O)C(O)C(O)C1O (configuration not stated) [myo-inositol] | 1.22 min
92 | O=C1CC(c2ccc(O)cc2)Oc2cc(OC3OC(CO)C(O)C(O)C3O)cc(O)c21 (configuration not stated) [naringenin 7-glucoside] | 27.9 min
